Assay results from US6482982B1, “Halogenated antituberculosis agents” (University of Sciences of Philadelphia, priority 2001, dated 2002).
In brackets after ≈: the same amount, converted by molar mass. Several values for one entry are separate records, joined by “and”; a condition that tells them apart may be missing. Identical values can stand only once. Like-named read-outs stand apart in the source and are kept apart here.

Key:
[1] = tested on: Mycobacterium tuberculosis H37Rv (ATCC 27294); test: Primary screening of anti-mycobacterial activity (Bactec); format: cell-based; set-up: % inhibition: concentration or dose not given beside the values; details: for MIC: Mycobacterium tuberculosis
M. tuberculosis H37Rv [2] = test: MIC determination by Microplate Alamar Blue Assay (MABA) against H37Rv; format: cell-based, Mycobacterium tuberculosis; details: for MIC: Mycobacterium tuberculosis
M. tuberculosis Erdman = test: MIC (MABA) against M. tuberculosis Erdman; format: cell-based; details: Mycobacterium tuberculosis, Alamar assay
M. tuberculosis H37Rv [3] = test: Minimum bactericidal concentration (MBC) against H37Rv; format: cell-based, Mycobacterium tuberculosis
VERO cells [4] = details: for SI (selectivity index, IC50:MIC ratio): IC50 in VERO cells to MIC H37Rv
VERO cells [5] = test: cells; details: Chlorocebus sabaeus
[6] = tested on: M. tuberculosis Erdman (ATCC 35801); test: Killing of M. tuberculosis Erdman in monolayers of mouse bone marrow macrophages
Experimental: Compounds were then tested for killing of M. tuberculosis Erdman (ATCC 35801) in monolayers of mouse bone marrow macrophages.

[7] = preliminary anti-TB test (primary screening), Bactec assay, read-out: MIC
[8] = preliminary anti-TB test (primary screening), Bactec assay
[9] = H37RV, comparison with parent drug, read-out: MIC against M. tuberculosis H37Rv (determined by MABA system)
[10] = Alamar assay, actual MIC at lower concentrations, H37Rv, read-out: MIC
[11] = read-out: IC50 (overt toxicity)
[12] = read-out: IC50 (reference drugs, Comments column)

## COC(=O)c1cc(F)c(NC(C)=O)cc1O [Compound 11, Methyl 4-acetamido-5-fluorosalicylate]
[1]; [7]
  MIC: > 12.5 µg/mL
[1]; [8]
  % inhibition: 0%
  Activity: Negative

## Nc1cc(O)c(C(=O)O)cc1F [Compound 12, 4-Amino-5-fluorosalicylic Acid]
[1]
  MIC: < 12.5 µg/mL
[1]; [8]
  % inhibition: 94%
  Activity: Positive
M. tuberculosis H37Rv [2]; Alamar assay, H37Rv
  % inh.: 94%
M. tuberculosis H37Rv [2]; [9]
  MIC: ≤ 3.13 µg/mL
M. tuberculosis H37Rv [2]; [10]
  MIC: 6.25 µg/mL (≈ 36.5 µM)
M. tuberculosis Erdman
  MIC: 12.5 µg/mL (≈ 73 µM)
M. tuberculosis H37Rv [3]
  H37Rv MBC: > 200 µg/mL
VERO cells [4]
  SI (selectivity index, IC50:MIC ratio): >10
VERO cells [5]; [11]
  IC50: > 62.5 µg/mL

## CC(=O)Nc1ccc(/C=N/NC(N)=S)cc1F [Compound 16, 4-Acetamido-3-fluorobenzaldehyde thiosemicarbazone]
[1]; [7]
  MIC: < 12.5 µg/mL
[1]; [8]
  % inhibition: 99% and > 90%
  Activity: Positive
M. tuberculosis H37Rv [2]; Alamar assay, H37Rv
  % inh.: 99%
M. tuberculosis H37Rv [2]; [9]
  MIC: ≤ 0.1 µg/mL
M. tuberculosis H37Rv [2]; [10]
  MIC: 0.2 µg/mL (≈ 0.787 µM)
M. tuberculosis H37Rv [2]; general statement
  activity against M. Tuberculosis (in words): highly active
M. tuberculosis Erdman
  MIC: 0.2 µg/mL (≈ 0.787 µM)
M. tuberculosis H37Rv [3]
  H37Rv MBC: 6.25 µg/mL
VERO cells [4]
  SI (selectivity index, IC50:MIC ratio): > 312.5
VERO cells [4]; listed as Comp. 16
  SI (selectivity index, IC50:MIC ratio): >312.5
VERO cells [4]; general statement
  toxicity (in words): non-toxic
VERO cells [5]; [11]
  IC50: > 62.5 µg/mL
[6]; 99% reduction in colony forming units at seven days, mouse bone marrow macrophages
  EC99: >3.2
[6]; Mycobacterium tuberculosis, ATCC35801|ERDMAN, Bone marrow macrophage, in Mus musculus, 168 h
  EC90: 1.7 µg/mL (≈ 6.69 µM)

## CC(=O)Nc1ccc(/C=N/NC(N)=S)c(F)c1 [Compound 17, 4-Acetamido-2-fluorobenzaldehyde thiosemicarbazone]
[1]; [7]
  MIC: < 6.25 µg/mL
[1]; [8]
  Activity: Positive

## CC(=O)Nc1ccc(/C=N/NC(N)=S)cc1Cl [Compound 25, 4-Acetamido-3-chlorobenzaldehyde thiosemicarbazone]
[1]; [7]
  MIC: < 6.25 µg/mL
[1]; [8]
  Activity: Positive

## CC(=O)Nc1ccc(/C=N/NC(N)=S)cc1Br [Compound 29, 4-Acetamido-3-bromobenzaldehyde thiosemicarbazone]
[1]; [7]
  MIC: < 6.25 µg/mL
[1]; [8]
  Activity: Positive

## CC(=O)Nc1ccc(/C=N/NC(N)=S)cc1I [Compound 34, 4-Acetamido-3-iodobenzaldehyde thiosemicarbazone]
[1]; [7]
  MIC: < 6.25 µg/mL
[1]; [8]
  Activity: Positive

## NNC(=O)c1ccncc1 [INH, isoniazid, reference compound]
VERO cells [5]; [12]
  IC50: 602 µg/mL (≈ 4390 µM)

## Nc1ccc(C(=O)O)c(O)c1 [p-aminosalicylic acid, reference compound]
M. tuberculosis H37Rv [2]; [9]
  MIC: 1.25 µg/mL (≈ 8.16 µM)

## CO[C@H]1/C=C/O[C@@]2(C)Oc3c(C)c(O)c4c(O)c(c(/C=N/N5CCN(C)CC5)c(O)c4c3C2=O)NC(=O)/C(C)=C\C=C\[C@H](C)[C@H](O)[C@@H](C)[C@@H](O)[C@@H](C)[C@H](OC(C)=O)[C@@H]1C [rifampicin, reference compound]
M. tuberculosis H37Rv [2]; [10]
  MIC: 0.015 µg/mL (≈ 0.0182 µM)
VERO cells [5]; [12]
  IC50: 77.7 µg/mL (≈ 94.4 µM)

## thiacetazone [reference compound]
M. tuberculosis H37Rv [2]; comparison with parent drug
  MIC against M. tuberculosis H37Rv (determined by MABA system): > 2.0 µg/mL
